Literature values as cited in patent US20090270335A1, “COLLYRIUM FOR DRY EYE” (AQUEOUS PHARMA LIMITED, priority 2006, published 2009).

System: tear secretion
Details: topical application
[1] = both in dry eye patients and people not suffering from dry eye

Structure (SMILES): CC[C@H](C)[C@H](NC(=O)[C@H](Cc1ccccc1)NC(=O)[C@H](C)NC(=O)[C@H](CC(=O)O)NC(=O)[C@H](CCCCN)NC(=O)[C@H](CO)NC(=O)[C@@H]1CCCN1C(=O)[C@@H]1CCC(=O)N1)C(=O)NCC(=O)N[C@@H](CC(C)C)C(=O)N[C@@H](CCSC)C(N)=O [eledoisin, Glu-Pro-Ser-Lys-Asp-Ala-Phe-Ile-Gly-Leu-Met-NH2]
- tear secretion rate [1]: increase
- tear volume [1]: increase
- side effect: chemosis (patients): not pronounced
- side effect: hyperemia of the conjunctiva (patients): observed initially in some patients
